Patent publication US6720353B2, “Plant proanthocyanidin extract effective at inhibiting adherence of bacteria with p-type fimbriae to surfaces” (priority 1997, dated 2004)

How the values were obtained:
P-type E. coli [1] = test: Hemagglutination assay: inhibition of P-type E. coli-induced agglutination of A+ human red blood cells (HRBC); assay type: cell-based; settings: for Inhibition of agglutination, HRBC: P-type E. coli, A+ human red blood cells, neutral pH
Method: (§1) Sixty E. coli strains were isolated from the urine of human and animal (dog and cat) patients suffering from urinary tract infections. After determining the fimbrial type of each strain, 5 strains specific for P-type fimbriae, and 5 strains specific for type 1 fimbriae were selected for use in bioactivity testing. Bacterial strains were subcultured in tryptose broth at 37° C. for 16 h. P-type strains were transferred to colonization factor agar (CFA) plates and grown overnight at 37° C. to enhance production of P-type fimbriae. Strains were harvested by centrifugation, washed once and suspended in phosphate-buffered saline solution (PBS) at pH 7.0 at a concentration of 5×10^8 bacteria/mL. […] Therefore, mixtures of P-type strains were used to test for P-type bioactivity, and mixtures of type 1 strains were used to test for type 1 bioactivity. Strains were kept frozen at −70° C. in tryptose broth (30% glycerol) for long-term storage.

P-type E. coli [2] = test: Latex bead agglutination test (beads coated with synthetic P-type receptor analog Galα1→4Galβ); assay type: cell-based; settings: for Inhibition of agglutination, P-Receptor: P-type E. coli, latex beads coated with P-type receptor analog
Method: as §1
The fractions were also tested in the P-type receptor bioassay of de Man et al., 1987, J. Clin. Microbiol. 25(2):401-406. Dried Fractions 1-8 were dissolved in PBS, neutralized, and mixed with P-type bacterial suspensions (30 μl fraction to 10 μl of bacterial suspension) on a polystyrene 24-well plate and incubated for 10 min on a rotary shaker. Latex beads coated with a synthetic P-type receptor analog (Galα1→4Galβ) (BACH test, Kabi Vitrum, Stockholm, Sweden) suspended in water at a concentration of 5×10^9 beads/mL were added (10 μl) to each well and incubation continued for 20 min on the rotary shaker. […] (4) uncoated beads and test fractions, and (5) bacteria, coated beads and epicatechin trimer. The control to show agglutination consisted of bacteria and coated beads.

type 1 E. coli [3] = test: Hemagglutination assay with guinea pig red blood cells (GPRBC); assay type: cell-based
Method: as §1
The inhibition of adherence of type 1 E. coli by the various fractions was tested according to hemagglutination assay for P-type bacteria, except guinea pig red blood cells (GPRBC) were used in place of HRBC. The results are shown in Table 4 under the column GPRBC using the same scoring system as described above.

type 1-fimbriated E coli = test: Yeast (Saccharomyces cerevisiae) agglutination assay; assay type: cell-based; settings: for Inhibition of agglutination, Yeast Cells: type 1 E. coli, S. cerevisiae
Method: as §1
The fractions were also tested in the bioassay of Eschdat et al., 1978, Biochem. Biophys. Res. Commmun. 85:1551-1559, using yeast cells. Yeast cultures of Saccharomyces cerevisiae were grown in Sabouraud dextrose broth and incubated for 24 hr at 38° C. Yeast cells were transferred to Sabouraud dextrose agar plates and grown under the same conditions. Cells were harvested, washed and suspended in PBS at a concentration of 4×10^8 cells/mL. Ten μl of type 1-fimbriated E coli were mixed with neutralized test fractions (30 μl) in a 24-well polystyrene plate and incubated for 10 min on a rotary shaker. Yeast cell suspension (10 μl) was added to each well and incubated for 5 min. […] The control to show agglutination consisted of bacteria and yeast. Tie results are shown in Table 4 under the column “Yeast Cells” using the same scoring system as described above.

type 1 E. coli [4] = settings: cited from earlier work

Compound | Inhibition of agglutination, HRBC (P-type E. coli [1]) | Agglutination in control well (P-type E. coli [1]; bacteria, HRBC and standard) | Inhibition of agglutination, P-Receptor (P-type E. coli [2]) | Agglutination in control well (P-type E. coli [2]; bacteria, coated beads and standard) | Inhibition of agglutination, GPRBC (type 1 E. coli [3]) | Inhibition of agglutination, Yeast Cells (type 1-fimbriated E coli) | Agglutination in control well (type 1-fimbriated E coli; bacteria, yeast and 1% D-mannose) | Inhibition of type 1 E. coli to uroepithelial cells (type 1 E. coli [4])
Epicatechin Trimer | + | no agglutination or complete inhibition of agglutination | + | no agglutination or complete inhibition of agglutination | − | − |  | 
O=C[C@@H](O)[C@@H](O)[C@H](O)[C@H](O)CO [1% D-Mannose, D-Mannose] | − |  | − |  | + | + | no agglutination or complete inhibition of agglutination | 
O=C(CO)[C@@H](O)[C@H](O)[C@H](O)CO [fructose] |  |  |  |  |  |  |  | responsible for the inhibition
